Laboratory results published in patent US8673852B2, “Methods of treating neuronal disorders using MNTF peptides and analogs thereof” (Genervon Biopharmaceuticals, LLC, priority 2006, dated 2014).
Read-outs that look alike come from different tables or passages of the source. Ends that are not written are not given here.

What was measured:
[1] = Safety in animal studies; type: in vivo; details: over 1000 Sprague Dawley rats and 15 of both wobbler mice and normal littermates
[2] = test system: permanent middle cerebral artery occlusion (MCAO) rat model; assay: Permanent middle cerebral artery occlusion (MCAO) rat model, 28 days; details: 2.5, 10 or 20 mg/kg IV
[3] = test system: middle cerebral artery occlusion (MCAO) mouse model; assay: MCAO mouse model, 1 hour ischemia and 14 days reperfusion, time of first dose varied; type: in vivo, C57BL/6 mice; details: 5 mg/kg IV
Method: The MABP and heart rate was recorded using a Visitech System blood pressure monitor.
Formulation of GM602 (CS Bio Co., Menlo Park, Calif., CS1507, GMP013, lot C811) was performed by NTS as a stock solution by reconstituting GM602 with (100%) saline that was stored at 4° C. Vehicle control received saline solution. The bolus IV injections via tail with GM602 was initiated at times of 0, 3, 6, 12 and 24 hours after the start of reperfusion and subsequently every day for 3 days following injury.
This study involved a transient model of ischemia. […] After the nylon suture was in place for 1 hour, it was pulled back into the ECA and the incision closed.
. […] The brains were removed and chilled for 15 minutes at −20° C. before being placed in a Rodent Brain Matrix. Coronal sections (1-mm thickness) were prepared and subjected to 2% triphenyltetrazolium chloride (TTC) staining at 37° C. Seven serial one-mm thick coronal sections through the rostral to caudal extent of the infarction were obtained from each brain, beginning two-mm from the frontal pole. […] The infarct area in each section was determined with a computer-assisted image analysis system, consisting of a Power Macintosh computer equipped with a Quick Capture frame grabber card, Hitachi CCD camera mounted on an Olympus microscope and camera stand. […] The images were captured and the total area of damage determined over the seven sections.

[4] = Immunocytochemical analysis of brain for GM6 with anti-6mer antibody; type: in vivo, C57BL/6 mice; details: 0.2 or 2 mg/kg IV
Method: (§1) C57BL6 mice were injected with GM6 at the indicated doses and examined for GM6 in the brain. Half of the brain was taken for immunocytochemical analysis for GM6, the other half (brain) was frozen for ELISA analysis.
(§2) Animals were acclimated for 1 week prior to experimentation. The animals were bolus i.v. dosed via tail vein with vehicle or GM6 at 0.2 or 2 mg/kg. […] Vehicle control received saline solution.
The immunocytochemical stained area in each section was determined with a computer-assisted image analysis system, consisting of a Power Macintosh computer equipped with a Quick Capture frame grabber card, Hitachi CCD camera mounted on an Olympus microscope and camera stand. NIH Image Analysis Software, v. 1.55 was used. The images were captured and the total area of GM6 peptide was determined over the ten sections.

[5] = GM6 levels in brain by competitive ELISA after IV injection (blood brain barrier penetration); type: in vivo, C57BL/6 mice; details: for increase in GM6 in the brain vs vehicle: 4 hours; for level at time molar at 4 h: male, C57BL/6, mouse, WT mice, brain collected 4 hours later, read-out: ELISA MNTF (μM) in the brain
Method: as §1, §2
To measure GM6 levels in samples using the competitive ELISA kit. Affinity purified rabbit anti-6Mer was coated on ELISA plate at 10 ug/ml in coating buffer. 6Mer-biotin was used at 1 uM (final dilution) in the assay. The known concentrations of GM6 (competitor) were used as reference standards starting from 80 uM and titrating 2-fold down 0.625 uM in the test for establishing standard curve. Concentration of tested samples was estimated from their OD450 observation based on the standard curve.
The brain tissue was prepared in cell lysis buffer containing 100 mM Tris HCl, pH 7.0, containing 2% BSA, 1 M NaCl, 4 mM EDTA, 2% Triton X-100, 0.1% sodium azide and protease inhibitors (Complete™, Mini, Boehringer Mannheim). Homogenates were prepared in 10 volumes of buffer to tissue wet weight. The homogenates were centrifuged for 30 minutes at 14,000×g. The resulting supernatant was used for ELISA with the appropriate volume adjustment.
For the assay, the anti-6Mer pAb was diluted to 10 ug/ml in ELISA coating buffer. The 96-well micro-titer plates were coated with 100 ul/well of the diluted pAb. The plates were covered and kept refrigerated overnight. Next day, the plates were blocked with 200 ul/well TBS with 3% BSA, and kept at RT for 60 min. The plates were washed 3× with TBST (TBS+0.05% Tween 20). For each plate, 10 ml 1 uM 6Mer-biotin and make 1 ml standard mix was prepared: 1 uM 6Mer-biotin with 80 uM 6Mer. For each plate, lanes 1 and 2 were used for the standard curve. 1 uM 6Mer-biotin (100 μl) was added to all wells except A1 and A2 and 200 ul/well of standard mix was added to A1 and A2. A serial 2-fold dilution from wells A1 and A2 down to wells H1 and H2 was performed by taking out 100 ul sample from each well and mix it with next well—pipetting up and down at least 8 times. The extra 100 ul at the final wells (H1 and H2) was discarded. Test samples (brain homogenate) was diluted in Ab dilution buffer and mixed at a 1:50 with the 1 uM 6Mer-biotin. The plate was mixed on a shaker at 400 rpm for 2 hours at RT. The samples were washed 6× with TBST. Streptavidin-HRP (10 ml per plate) solution was prepared by diluting Streptavidin-HRP to 1:2000 in Ab dilution buffer. The plate was mixed on the shaker for another 1 hour at RT. The samples were wash 8× with TBST. […] The reaction was stopped with 50 ul 1M HCl. and read OD450 immediately.

## FSRYAR [GM6, FSRYAR]
[1]
  safety problems in animal studies: No safety problems were identified
[2]
  changes in HR, BP, pO2, pCO2, or pH: no changes
[3]
  changes in CBF, HR, BP, pO2, pCO2, or pH: no changes
[4]
  immunoreactivity for GM6 in brain tissue: No immunoreactivity was detected
[5]; 0.2 mg/kg IV bolus
  increase in GM6 in the brain vs vehicle: 400%
  level at time molar at 4 h: 1.76 µM
[5]; 2 mg/kg IV bolus
  increase in GM6 in the brain vs vehicle: 3000%
  level at time molar at 4 h: 12.9 µM
